Key:
A549 cells = experiment: DNA platination in cells, DNA extracts analyzed by GFAA; assay type: cell-based; settings: 60 μM, 2 hours at 37° C.
Description: 5×10^6 A549 cells were received in tubes from Nobel Life Sciences in 10% FBS, 5% DMSO. Upon thawing, cells were washed with RPMI to remove the DMSO. […] Cells were then lysed and applied to a DNEasy™ DNA purification kit. The resulting DNA extracts were then analyzed by GFAA.

calf thymus DNA = settings: general statement on classic platinum agents; cited from earlier work
A549 tumor cell line = experiment: CellTiter-Glo cell viability assay in A549 tumor cell line; assay type: cell-based; settings: CellTiter-Glo luminescence
Description: The cell suspension was transferred to a centrifuge tube and centrifuged at 800-1000 rpm for 3-5 minutes.
The lyophilized CellTiter-Glo substrate was equilibrated to room temperature prior to use.
The contents were mixed for 2 minutes on an orbital shaker to induce cell lysis.

Compound | DNA platination, % of Cisplatin standard (A549 cells) | DNA associated platinum in this type of experiment (calf thymus DNA) | IC50 (A549 tumor cell line)
N.N.[Cl][Pt][Cl] [Cisplatin] | 100% | high degree of DNA associated platinum | 
Di-1,1,3,3-tetramethylbutylcarbamate, ammonia quinoplatinium (II) [Compound 19] |  |  | 4.3 µM

— patent US10472380B2, “Platinum compounds having a heterocycle ligand, nanoparticles, and uses thereof” (PLACON THERAPEUTICS, INC., priority 2013, dated 2019)
